Growth data for 1 compound are collected here from ChEMBL document CHEMBL2040759, “Design, synthesis and anticancer activity of nitric oxide donating/chalcone hybrids” (2012).

Each structure is given as a SMILES string.

For the test, the system named is UACC-62. Kind of test: Growth inhibition of human UACC62 cells assessed as cell growth at 10^-5 M after 48 hrs by SRB assay. The settings on record: UACC-62, 48 h, read-out: Activity. In kind it is functional. (In general: The SRB assay estimates cell density from bound dye.)

For the compound `C/C(=N\O)c1ccc(OCC(=O)Nc2ccc(C(=O)/C=C/c3ccc(Cl)cc3)cc2)cc1`, the growth at 10 µM was 37.5%.
